The nature of data set [1]: Half life was determined. It counts as ADME. As to conditions: rat.
The next data set deals with Plasmodium falciparum. Put plainly: In vitro antimalarial activity against Plasmodium falciparum. Type of data set: functional, organism-based.

In brackets after ≈: the same amount, converted by molar mass.

Usually half-life stands for the time in which the quantity being followed falls by half. A high value points to slow decline. Usually IC50 stands for the concentration at which inhibition is half-maximal.

Consider `CCCC[C@H]1O[C@@H]2O[C@]3(C)CC[C@H]4[C@H](C)CC[C@@H]([C@H]1C)[C@@]24OO3`, for which the half-life in data set [1] is 165 h. Besides, in the data set with Plasmodium falciparum, the IC50 is 1.15 ng/mL (≈ 3.54 nM).

Take `C[C@H]1[C@@H](CCCCC(=O)O)O[C@@H]2O[C@]3(C)CCC4[C@H](C)CC[C@@H]1[C@]42OO3` (stereo partly specified): the half-life in data set [1] was 374 h. This compound also yielded a 50% inhibitory concentration (IC50) in the data set on Plasmodium falciparum of 1.28 ng/mL (≈ 3.47 nM).

`C[C@H]1[C@@H](CCCC(=O)O)O[C@@H]2O[C@]3(C)CCC4[C@H](C)CC[C@@H]1[C@]42OO3` (stereo partly specified) had a half-life in data set [1] of 387 h. The compound also came in with a half-inhibitory concentration (IC50) in the data set with Plasmodium falciparum of 1.3 ng/mL (≈ 3.67 nM).

`C[C@@H]1CC[C@H]2[C@@H](C)CO[C@@H]3O[C@]4(C)CCC1[C@]32OO4` (stereo partly specified): the half-life in data set [1] is 213 h. The same compound had a concentration for half-maximal inhibition (IC50) with Plasmodium falciparum of 0.15 ng/mL (≈ 0.559 nM).

In data set [1], `C[C@H]1[C@@H](Cc2ccccc2)O[C@@H]2O[C@]3(C)CCC4[C@H](C)CC[C@@H]1[C@]42OO3` (stereo partly specified) had a half-life of 286 h. The same compound showed an IC50 in the data set with Plasmodium falciparum below 0.17 ng/mL.

As to `CCO[C@H]1O[C@@H]2OC3(C)CCC4[C@H](C)CC[C@@H]([C@H]1C)[C@]42OO3` (single isomer, unassigned), in data set [1], the half-life was 11 h. In addition, the IC50 in the data set with Plasmodium falciparum stood at 0.16 ng/mL (≈ 0.512 nM).

For `C[C@H]1[C@@H](OCc2ccc(C(=O)O)cc2)O[C@@H]2OC3(C)CCC4[C@H](C)CC[C@@H]1[C@]42OO3` (single isomer, unassigned), in data set [1], the half-life was 13.1 h. The 50% inhibitory concentration (IC50) in the data set on Plasmodium falciparum was 1.38 ng/mL (≈ 3.3 nM).

On to `C[C@@H]1CC[C@H]2[C@@H](C)C(=O)O[C@@H]3O[C@@]4(C)CC[C@@H]1[C@]32OO4` [ARTEMISININ], for which the half-life in data set [1] was 23.5 h.

In the case of `C[C@H]1[C@@H](O)O[C@@H]2O[C@@]3(C)CC[C@H]4[C@H](C)CC[C@@H]1[C@@]24OO3` [ARTENIMOL], the half-life in data set [1] is 17.2 h.

These data come from ChEMBL document CHEMBL1130799, “Stability of acetal and non acetal-type analogs of artemisinin in simulated stomach acid” (Bioorg Med Chem Lett, 1998).
